The source of these data is patent US20250145589A1, “PYRIDINE DERIVATIVE AND USE THEREOF” (SICHUAN HUIYU PHARMACEUTICAL CO., LTD., priority 2021, published 2025).

The subject of assay [1] is NCI-H358 cells (KRAS G12C mutant). Nature of the assay: NCI-H358 cell proliferation inhibition (CellTiter-Glo). Format: cell-based. The following applies: Homo sapiens, NCI-H358, 72 h; H358 cells (G12C mutation), 3 days, Table 6; read-out: NCI-H358 (IC50). (In ATP-based viability assays light output follows the ATP content of the culture.)
Assay [2] relates to MIA PaCa-2-AMGR drug-resistant cell line. Nature of the assay: MIA PaCa-2-AMGR drug-resistant cell proliferation inhibitory activity test. Format: cell-based. The following applies: 72 h, MIA PaCa-2-AMGR drug-resistant cells, 3 days incubation, CellTiter-Glo. The method in brief:
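Viability was read by CellTiter-Glo luminescence after 3 days of compound exposure (8 points, 5-fold serial dilution), with IC50 derived relative to untreated control. Cells: AMG510-resistant MIA PaCa-2 (selected stepwise to 1 μM AMG510), 4×10^3/well, DMEM + 10% FBS + 2.5% horse serum, 37° C.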

Broadly, the IC50 is the concentration needed to halve the response being measured.

For the compound `COc1ncc(-c2ccc3ncnc(N4CCN(C(=O)/C=C/C(C)=O)CC4)c3c2)cc1NS(=O)(=O)c1c(F)cccc1C#N` [Example 122, (E)-2-cyano-6-fluoro-N-(2-methoxy-5-(4-(4-(4-oxopent-2-enoyl)piperazin-1-yl)quinazolin-6-yl)pyridin-3-yl)benzenesulfonamide], the IC50 in assay [1] is 47.9 nM; in assay [2] it was 273 nM.
For `COc1ncc(-c2ccc3ncnc(N4CCN(C(=O)/C=C/C(C)=O)CC4)c3c2)cc1NS(=O)(=O)c1ccc(C#N)cc1F` [Example 123, (E)-4-cyano-2-fluoro-N-(2-methoxy-5-(4-(4-(4-oxopent-2-enoyl)piperazin-1-yl)quinazolin-6-yl)pyridin-3-yl)benzenesulfonamide] the same measures were 21.2 nM and 328 nM.
For `COc1ncc(-c2ccc3ncnc(N4CCN(C(=O)/C=C/C(C)=O)CC4)c3c2)cc1NS(=O)(=O)c1ccc(C(F)(F)F)cc1F` [Example 124, (E)-2-fluoro-N-(2-methoxy-5-(4-(4-(4-oxopent-2-enoyl)piperazin-1-yl)quinazolin-6-yl)pyridin-3-yl)-4-(trifluoromethyl)benzenesulfonamide] the same measures were 19.7 nM and 83.9 nM.
On the same counts, the results for `COc1ncc(-c2ccc3ncnc(N4CCN(C(=O)/C=C/C(C)=O)CC4)c3n2)cc1NS(=O)(=O)c1c(F)cccc1F` [Example 131, (E)-2,6-difluoro-N-(2-methoxy-5-(4-(4-(4-oxopent-2-enoyl)piperazin-1-yl)pyrido[3,2-d]pyrimidin-6-yl)pyridin-3-yl)benzenesulfonamide] are 5.2 nM and 29.6 nM.
As for `COc1ncc(-c2ccc3ncnc(N4C5CCC4CN(C(=O)/C=C/C(C)=O)C5)c3c2)cc1NS(=O)(=O)c1ccc(F)cc1F` [Example 144, 2,4-difluoro-N-(2-methoxy-5-(4-(3-((E)-4-oxopent-2-enoyl)-3,8-diazabicyclo[3.2.1]octan-8-yl)quinazolin-6-yl)pyridin-3-yl)benzenesulfonamide], the results for the IC50 in assay [1] and in assay [2] were 47.8 nM and 56.6 nM, respectively.
For `COc1ncc(-c2ccc3ncnc(N4CC5CCC(C4)N5C(=O)/C=C/C(C)=O)c3c2)cc1NS(=O)(=O)c1c(F)cccc1F` [Example 145, 2,6-difluoro-N-(2-methoxy-5-(4-(8-((E)-4-oxopent-2-enoyl)-3,8-diazabicyclo[3.2.1]octan-3-yl)quinazolin-6-yl)pyridin-3-yl)benzenesulfonamide] the same measures were 36.2 nM and 113 nM.
For `COc1ncc(-c2ccc3ncnc(N4CCC5(CC4)CN(C(=O)/C=C/C(C)=O)C5)c3c2)cc1NS(=O)(=O)c1ccccc1F` [Example 150, (E)-2-fluoro-N-(2-methoxy-5-(4-(2-(4-oxopent-2-enoyl)-2,7-diazaspiro[3.5]nonan-7-yl)quinazolin-6-yl)pyridin-3-yl)benzenesulfonamide] the same measures were 16.4 nM and 55.1 nM.
On the same counts, the results for `COc1ncc(-c2ccc3ncnc(N4CCN(C(=O)/C=C/C(C)=O)C[C@@H]4C)c3c2)cc1NS(=O)(=O)c1ccccc1F` [Example 152, (S,E)-2-fluoro-N-(2-methoxy-5-(4-(2-methyl-4-(4-oxopent-2-enoyl)piperazin-1-yl)quinazolin-6-yl)pyridin-3-yl)benzenesulfonamide] are 29.8 nM and 52.1 nM.
Turning to `COc1ncc(-c2ccc3ncnc(N4CCN(C(=O)/C=C/C(C)=O)C[C@@H]4C)c3c2)cc1NS(=O)(=O)c1ccc(F)cc1` [Example 153, (S,E)-4-fluoro-N-(2-methoxy-5-(4-(2-methyl-4-(4-oxopent-2-enoyl)piperazin-1-yl)quinazolin-6-yl)pyridin-3-yl)benzenesulfonamide], the IC50 in assay [1] was determined as 59.8 nM; in assay [2], 49.7 nM.
On the same counts, the results for `COc1ncc(-c2ccc3ncnc(N4CCN(C(=O)/C=C/C(C)=O)C[C@@H]4C)c3c2)cc1NS(=O)(=O)c1c(F)cc(F)cc1F` [Example 154, (S,E)-2,4,6-trifluoro-N-(2-methoxy-5-(4-(2-methyl-4-(4-oxopent-2-enoyl)piperazin-1-yl)quinazolin-6-yl)pyridin-3-yl)benzenesulfonamide] are 16.7 nM and 32.2 nM.
As for `COc1ncc(-c2ccc3ncnc(N4CC5CCC(C4)N5C(=O)/C=C/C(C)=O)c3c2)cc1NS(=O)(=O)c1c(F)cc(F)cc1F` [Example 155], the IC50 in assay [1] amounted to 40.3 nM; in assay [2], 112 nM.
Consider `COc1ncc(-c2ccc3ncnc(N4CC5CCC4CN5C(=O)/C=C/C(C)=O)c3c2)cc1NS(=O)(=O)c1ccc(F)cc1F` (stereo not drawn) [Example 158, (E)-2,4-difluoro-N-(2-methoxy-5-(4-(5-(4-oxopent-2-enoyl)-2,5-diazabicyclo[2.2.2]octan-2-yl)quinazolin-6-yl)pyridin-3-yl)benzenesulfonamide], for which the results for the IC50 in assay [1] and in assay [2] were 55.2 nM and 136 nM, respectively.
In the case of `CC(=O)/C=C/C(=O)N1CCN(c2ncnc3ccc(-c4cnc(OCC(F)(F)F)c(NS(=O)(=O)c5ccc(F)cc5F)c4)cc23)CC1` [Example 159, (E)-2,4-difluoro-N-(5-(4-(4-(4-oxopent-2-enoyl)piperazin-1-yl)quinazolin-6-yl)-2-(2,2,2-trifluoroethoxy)pyridin-3-yl)benzenesulfonamide], the results for the IC50 in assay [1] and in assay [2] were 172 nM and 226 nM, respectively.
For `COc1ncc(-c2ccc3ncnc(N4CCN(C(=O)/C=C/C(C)=O)CC4)c3c2)cc1NS(=O)(=O)c1sc(C)nc1C` [Example 160, (E)-N-(2-methoxy-5-(4-(4-(4-oxopent-2-enoyl)piperazin-1-yl)quinazolin-6-yl)pyridin-3-yl)-2,4-dimethylthiazole-5-sulfonamide] the same measures were 13 nM and 53.8 nM.
On the same counts, the results for `COc1ncc(-c2ccc3ncnc(N4CCC5(CC4)CN(C(=O)/C=C/C(C)=O)C5)c3c2)cc1NS(=O)(=O)c1ccc(F)cc1` [Example 161, (E)-4-fluoro-N-(2-methoxy-5-(4-(2-(4-oxopent-2-enoyl)-2,7-diazaspiro[3.5]nonan-7-yl)quinazolin-6-yl)pyridin-3-yl)benzenesulfonamide] are 43.4 nM and 55.3 nM.
For `COc1ncc(-c2ccc3ncnc(N4CCN(C(=O)/C=C/C(C)=O)CC4)c3c2)cc1NS(=O)(=O)c1ncc(Cl)s1` [Example 165, (E)-5-chloro-N-(2-methoxy-5-(4-(4-(4-oxopent-2-enoyl)piperazin-1-yl)quinazolin-6-yl)pyridin-3-yl)thiazole-2-sulfonamide], the results for the IC50 in assay [1] and in assay [2] were 36.5 nM and 173 nM, respectively.
For `C=C(C(C)=O)C(=O)N1CCN(c2ncnc3ccc(-c4cnc(OC)c(NS(=O)(=O)c5ccc(F)cc5F)c4)cc23)CC1` [Example 168, 2,4-difluoro-N-(2-methoxy-5-(4-(4-(2-methylene-3-oxobutanoyl)piperazin-1-yl)quinazolin-6-yl)pyridin-3-yl)benzenesulfonamide] the same measures were 31.2 nM and 192 nM.
On the same counts, the results for `COc1ncc(-c2ccc3ncnc(N4CCN(C(=O)/C=C/C(C)=O)CC4)c3c2)cc1NS(=O)(=O)c1ccc(F)cc1Cl` [Example 169, (E)-2-chloro-4-fluoro-N-(2-methoxy-5-(4-(4-(4-oxopent-2-enoyl)piperazin-1-yl)quinazolin-6-yl)pyridin-3-yl)benzenesulfonamide] are 5.7 nM and 54.4 nM.
Turning to `COc1ncc(-c2ccc3ncnc(N4CCN(C(=O)/C=C/C(C)=O)CC4)c3c2)cc1NS(C)(=O)=O` [Example 170, (E)-N-(2-methoxy-5-(4-(4-(4-oxopent-2-enoyl)piperazin-1-yl)quinazolin-6-yl)pyridin-3-yl)methane-sulfonamide], the IC50 in assay [1] was determined as 61.6 nM; in assay [2], 183 nM.
For `COc1ncc(-c2ccc3ncnc(N4CCC5(CC4)CN(C(=O)/C=C/C(C)=O)C5)c3c2)cc1NS(=O)(=O)c1ccc(F)cc1Cl` [Example 171, (E)-2-chloro-4-fluoro-N-(2-methoxy-5-(4-(2-(4-oxopent-2-enoyl)-2,7-diazaspiro[3.5]nonan-7-yl)quinazolin-6-yl)pyridin-3-yl)benzene-sulfonamide] the same measures were 5.7 nM and 32.9 nM.
On the same counts, the results for `COc1ncc(-c2ccc3ncnc(N4CCN(C(=O)/C=C/C(C)=O)CC4)c3c2)cc1NS(=O)(=O)c1ccncc1C` [Example 172, (E)-N-(2-methoxy-5-(4-(4-(4-oxopent-2-enoyl)piperazin-1-yl)quinazolin-6-yl)pyridin-3-yl)-3-methyl-pyridine-4-sulfonamide] are 68.1 nM and 256 nM.
On the same counts, the results for `COc1ncc(-c2ccc3ncnc(N4CCN(C(=O)/C=C/C(C)=O)C[C@@H]4C)c3c2)cc1NS(=O)(=O)c1sc(C)nc1C` [Example 173, (S,E)-N-(2-methoxy-5-(4-(2-methyl-4-(4-oxopent-2-enoyl)piperazin-1-yl)quinazolin-6-yl)pyridin-3-yl)-2,4-dimethyl-thiazole-5-sulfonamide] are 6.8 nM and 62.6 nM.
As to `COc1ncc(-c2ccc3ncnc(N4CCN(C(=O)/C=C/C(C)=O)C[C@@H]4C)c3c2)cc1NS(=O)(=O)c1ccc(F)cc1Cl` [Example 174, (S,E)-2-chloro-4-fluoro-N-(2-methoxy-5-(4-(2-methyl-4-(4-oxopent-2-enoyl)piperazin-1-yl)quinazolin-6-yl)pyridin-3-yl)benzene-sulfonamide], the IC50 in assay [1] was found to be 15.8 nM; in assay [2], 26.3 nM.
On the same counts, the results for `COc1ncc(-c2ccc3ncnc(N4CC5CCC(C4)N5C(=O)/C=C/C(C)=O)c3c2)cc1NS(=O)(=O)c1ccc(F)cc1Cl` [Example 175, 2-chloro-4-fluoro-N-(2-methoxy-5-(4-(8-((E)-4-oxopent-2-enoyl)-3,8-diazabicyclo [3.2.1]octan-3-yl)quinazolin-6-yl)pyridin-3-yl)benzene-sulfonamide] are 22.3 nM and 36.7 nM.
